Measured values: US20080261984A1, “Use of S,S-Reboxetine in the Treatment of Pain” (Pfizer Inc., priority 2004, published 2008)

Columns and labels:
[1] = patients receiving gabapentin; cited from earlier work
[2] = in vivo; cited from earlier work
norepinephrine reuptake = norepinephrine reuptake (Homo sapiens, UniProt P23975); conditions: cited from earlier work
dopamine reuptake = dopamine reuptake (Homo sapiens, UniProt Q01959); conditions: cited from earlier work
[3] = in vivo; cited from earlier work; remark: listed apart in the source
monoamine oxidase (MAO) = conditions: cited from earlier work
anticholinergic binding = conditions: different animal models; cited from earlier work
[4] = treatment of pain in patients who do not respond to alpha-2-delta ligands such as gabapentin (PHN study); conditions: human, in vivo
Experimental: The following study is carried out to assess the efficacy of (S,S)-reboxetine in the treatment of patients with post-herpetic neuralgia (PHN) who fail to respond to gabapentin (GBP) treatment.
Study Population Male or female patients aged 18 years or older, with pain present more than 3 months after healing of the Herpes Zoster skin rash and who are also GBP treatment failures. No upper limit on the duration of PHN is imposed. GBP failures are defined as either: […]
Those patients who show no or minimal improvement on the Patient Global Impression of Change (PGIC) after treatment with GBP (1800 mg/day) administered for a period of […]
Those who are unable to tolerate doses of GBP less than or equal to 1800 mg/day.
Study Design Randomized, double-blind, placebo-controlled, 2-treatment (placebo and active), age-stratified study in patients aged 18 years or older, who suffer from PHN. The study is comprised of 3 phases: (i) 7-weeks screening including 4-weeks GBP treatment, (ii) 5-weeks randomized treatment, and (iii) 1-week follow-up period.
All patients who meet entry criteria initially enter a 1-week run-in period during which a daily pain diary will be maintained. Thereafter, if the severity of pain meets relevant criteria for inclusion in the study, patients enter a 4-week period during which they will receive GBP treatment. […]

Sequence of dopamine reuptake (Q01959 whole entry): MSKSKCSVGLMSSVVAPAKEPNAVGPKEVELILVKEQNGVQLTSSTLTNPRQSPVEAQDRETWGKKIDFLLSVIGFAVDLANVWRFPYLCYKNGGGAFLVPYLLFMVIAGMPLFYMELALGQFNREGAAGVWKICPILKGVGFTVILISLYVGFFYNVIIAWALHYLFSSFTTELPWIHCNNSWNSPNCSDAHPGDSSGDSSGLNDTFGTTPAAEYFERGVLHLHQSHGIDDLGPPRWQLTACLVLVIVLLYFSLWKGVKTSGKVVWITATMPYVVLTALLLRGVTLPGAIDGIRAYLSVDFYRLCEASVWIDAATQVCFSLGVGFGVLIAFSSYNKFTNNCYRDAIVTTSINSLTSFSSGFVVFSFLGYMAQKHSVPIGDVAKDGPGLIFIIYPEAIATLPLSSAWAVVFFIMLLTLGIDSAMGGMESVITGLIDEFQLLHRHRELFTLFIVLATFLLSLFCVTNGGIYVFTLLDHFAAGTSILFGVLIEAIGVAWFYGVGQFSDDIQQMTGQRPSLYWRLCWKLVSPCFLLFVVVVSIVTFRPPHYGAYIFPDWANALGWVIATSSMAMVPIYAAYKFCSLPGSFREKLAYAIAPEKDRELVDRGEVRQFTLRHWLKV
Sequence of norepinephrine reuptake (P23975 whole entry): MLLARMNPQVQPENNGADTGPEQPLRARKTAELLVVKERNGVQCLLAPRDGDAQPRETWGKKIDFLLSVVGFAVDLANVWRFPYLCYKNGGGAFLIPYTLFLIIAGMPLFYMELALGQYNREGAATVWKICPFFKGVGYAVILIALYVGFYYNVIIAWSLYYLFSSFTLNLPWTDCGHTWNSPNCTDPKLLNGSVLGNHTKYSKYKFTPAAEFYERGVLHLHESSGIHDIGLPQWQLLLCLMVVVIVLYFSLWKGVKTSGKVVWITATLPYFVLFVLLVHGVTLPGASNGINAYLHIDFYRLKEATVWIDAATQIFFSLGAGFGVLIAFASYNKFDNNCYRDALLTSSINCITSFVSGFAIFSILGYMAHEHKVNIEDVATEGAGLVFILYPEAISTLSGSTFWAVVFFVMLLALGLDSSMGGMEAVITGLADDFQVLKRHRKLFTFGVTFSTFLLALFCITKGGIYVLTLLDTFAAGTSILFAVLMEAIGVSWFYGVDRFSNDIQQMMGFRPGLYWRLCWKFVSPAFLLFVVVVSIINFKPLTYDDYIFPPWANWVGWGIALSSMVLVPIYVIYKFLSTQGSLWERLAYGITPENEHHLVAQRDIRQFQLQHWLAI

In the case of NCC1(CC(=O)O)CCCCC1 [gabapentin, 1-(aminomethyl)-cyclohexylacetic acid], the “patients noting at least a moderate improvement (score of 1 or 2) on the Patient Global Impression of Change” value [1] is listed as “Approximately 60%” and the “efficacy in the treatment of painful diabetic neuropathy” value [2] is listed as “efficacious”.

For COc1ccc(C(CN(C)C)C2(O)CCCCC2)cc1 (stereo not drawn) [venlafaxine], the “norepinephrine reuptake inhibitory activity” value (norepinephrine reuptake) is listed as “potent inhibitor” and the “dopamine reuptake inhibitory activity” value (dopamine reuptake) is listed as “weak inhibitor”.

In the case of CCOc1ccccc1OC(c1ccccc1)C1CNCCO1 (racemic) [reboxetine, (RR, SS)-2-[α-(2-ethoxyphenoxy)benzyl]morpholine], the “effect in the 8-OH-DPAT hypothermia test” value [3] is given as “ineffective”, the “monoamine oxidase (MAO) inhibitory activity” value (monoamine oxidase (MAO)) is given as “substantially devoid” and the anticholinergic binding activity (anticholinergic binding) is given as “no anticholinergic binding activity”.

For CCOc1ccccc1O[C@@H](c1ccccc1)[C@@H]1CNCCO1 [(S,S)-reboxetine], the “efficacy in treating pain in patients who do not respond to alpha-2-delta ligands” value [4] is listed as “efficacious” and the “dopamine reuptake inhibitory activity” value (dopamine reuptake) is listed as “no”.
